# ChEMBL document CHEMBL3507680, “University of Dundee, Gates Library screen for HepG2 cell viability”
# Test: Human HepG2 cell viability assay in 384 well format
# Type: toxicity, cell-based
# Design: dose 125 nL, time 70.5 hour; cytotoxicity at 70.5 h: concentration not given beside the values
# Conditions: HepG2 cells, read-out: Inhibition
row,SMILES,cytotoxicity at 70.5 h [%]
1,CCN(CC)S(=O)(=O)c1ccc(C(=O)NC(C)(C)C)cc1,35.7
2,COc1ccc(-c2cc3cccn(CC(=O)N4CCOCC4)c-3n2)cc1,10.5
3,COc1cccc(CNCc2cccnc2)c1,9.83
4,Cc1cccc(N2CCCC2c2nc(C)ncc2CN(C)C)n1 (centres undefined),-4.92
5,Cc1ccc(N(C)[C@@H]2CC[C@@H]3CN(C(=O)CC4CCOCC4)C[C@@H]32)nn1,-7.61
6,NCc1cccc(-c2cccnc2C(=O)NCCN2CCCC2)c1,-8.26
7,COCCN1CCCC(Cc2cnc(-c3c(C)nn(C)c3C)cn2)C1 (centres undefined),-5.51
8,COCCN1CCCC(c2ncc(C(=O)N3CCOCC3)c(C)n2)C1 (centres undefined),1.77
9,CN1CCN(CC2(O)CCCN(C(=O)Cc3cccc(O)c3)CC2)CC1 (centres undefined),-12.4
10,COc1cccc(-c2cc(C3CCCNC3)ccn2)c1 (centres undefined),3.19
11,CC(=O)N1CCC(C)(c2cc[nH]n2)CC1,-3.17
12,Cc1ccccc1CC(=O)N1C[C@@H](O)[C@H](N2CCOCC2)C1,3.85
13,Cc1ccccc1CC(=O)N1C[C@@H](O)[C@H](N2CCN(C)CC2)C1,0.191
14,NC(=O)c1cnc(NCC(=O)NCc2ccccc2)c(Cl)c1,-4.1
15,Cc1noc(CCNC(=O)c2ccc(N(C)C)c(F)c2)n1,-3.5
16,Cc1csc(CCNC(=O)c2ccc(N(C)C)c(F)c2)n1,13.6
17,OCCCN1CCCC1c1cccc(Br)c1 (centres undefined),-4.27
18,N#Cc1ccc(CS(=O)(=O)NC(=O)c2ccc(C#N)cc2)cc1,-14.8
19,N#Cc1ccc(S(=O)(=O)NC(=O)c2ccc3c(c2)COC3)cc1,-4.81
20,CC(C)c1nnc(NC(=O)NCc2cccnc2NCCN(C)C)s1,4.5
21,NC(=O)c1cnc(NC(=O)CCc2ccco2)c(Cl)c1,-2.14
22,CC(NS(=O)(=O)CCCC#N)c1cccc(-n2cccn2)c1 (centres undefined),-10.5
23,CCc1ocnc1C(=O)N1CCN(c2nncc3ccccc23)CC1,-19.4
24,O=C(C1CCOCC1)N(CCc1ccccc1)C1CCOC1 (centres undefined),8.62

row,SMILES,cytotoxicity at 70.5 h [%]
1,Cc1n[nH]c(-c2ccc(NC(=O)C(C)N3CCN(C)CC3)cc2)n1 (centres undefined),2.06
2,Cc1nnc(NCc2ccc(SC(F)F)cc2)o1,14.2
3,Cn1cc(C(NCCc2ccccn2)c2cccc(F)c2)cn1 (centres undefined),-5.84
4,CSc1cc2c(cc1NC(=O)N(C)Cc1ccncc1)OCCO2,-2.5
5,Cc1occc1C(=O)NCC(=O)N1CCCC(c2ccccc2)CC1 (centres undefined),-3.67
6,COc1cc(C#N)ccc1OCCN1CCC(n2ccnc2)CC1,-7.5
7,Cc1nnc2n1CC(CNCc1nc(-c3ccsc3)no1)CC2 (centres undefined),-14.6
8,O=C(CN1CCCc2sccc2C1=O)NC1CCc2nccn2C1 (centres undefined),23.3
9,CN(C)c1ccc(NC(=O)CN2CCS(=O)(=O)CC2)cn1,-0.4
10,CC(C)Oc1cccc(CC(=O)NC2CCN(CC(N)=O)CC2)c1,-10.1
11,Cc1nc2cc(=O)[nH]n2c(C)c1CC(=O)NC(C)C,-7.48
12,Cc1cc(F)ccc1S(=O)(=O)NCc1[nH]ncc1Br,-7.73
13,CCc1nnc2n1CC(CNCc1nc(-c3ccsc3)no1)CC2 (centres undefined),-4.57
14,COc1cccc(COC(C)C(=O)NC2CCN(CC(N)=O)CC2)c1 (centres undefined),-7.36
15,Cc1ccc(S(=O)(=O)NCc2[nH]ncc2Br)cc1F,-1.86
16,Cc1ccccc1C(C)NC(=O)Cc1c(C)nc2cc(=O)[nH]n2c1C (centres undefined),-10.1
17,Brc1cnc(NCCCOCC2CCOC2)nc1 (centres undefined),-5.54
18,Brc1cnc(NCCCOC2CCOCC2)nc1,-6.88
19,N#Cc1cn(C2CC2)c(=O)n(Cc2cc(-c3cccs3)on2)c1=O,-6.97
20,CN1CCCN(S(=O)(=O)c2cnn(C)c2)c2cc(Cl)ccc21,-3.72
21,Cc1nnc2n1CC(CNCc1nc(-c3cccs3)no1)CC2 (centres undefined),18.6
22,CN1CCCN(S(=O)(=O)c2cn(C)cn2)c2cc(Cl)ccc21,-0.299
23,CN1CCCN(S(=O)(=O)c2cn(C)cn2)c2cc(F)ccc21,4.76
24,CN(C)CC(C)(O)CNC(=O)Nc1sc2ccccc2c1Cl (centres undefined),8.3

row,SMILES,cytotoxicity at 70.5 h [%]
1,CCOCC(O)CNc1cncc(Br)c1 (centres undefined),-1.77
2,CS(=O)(=O)NC1CCN(C(=O)CCC2CCCO2)CC1 (centres undefined),-0.0133
3,Brc1ccc(NCCCOC2CCOCC2)nc1,-1.01
4,CCOc1ccc(N(C)Cc2nc(C)c(C)o2)cc1,15.3
5,CCOc1ccc(N(C)Cc2nnc(C3CC3)o2)cc1,-2.24
6,CCN(CCNS(=O)(=O)C1CCOCC1)C(=O)OC(C)(C)C,-5.67
7,CN(Cc1ccc(C#N)cc1)C(=O)c1ccn(C)c(=O)c1,-9.77
8,Cc1cc(C(=O)NC(C)Cc2ccccc2Cl)n(C)n1 (centres undefined),-7.08
9,CN(C)CCN(Cc1ccc(C#N)cc1)C(=O)c1ccn(C)c(=O)c1,24.8
10,COCCOc1cccc(CNCc2ccc(-n3cncn3)nc2)c1,-4.01
11,CC(C)(C)OC(=O)N(CCNS(=O)(=O)N1CCOCC1)C1CC1,-3.4
12,COc1c(C)cnc(CN2CCn3c(C)nnc3C2)c1C,-3.41
13,COC(=O)CNC(=O)c1ccn(-c2ccc(Cl)c(Cl)c2)n1,-2.3
14,CNC(=O)COC(=O)c1ccn(-c2ccc(Cl)c(Cl)c2)n1,24.2
15,COc1c(C)cnc(CN2CCn3c(nnc3C(C)C)C2)c1C,-1.82
16,CS(=O)(=O)NC(=O)c1ccn(-c2ccccc2Cl)n1,-1.86
17,Cc1ncc(CNC(=O)NCC(C)Oc2ccccc2F)s1 (centres undefined),-3.22
18,Cc1ncc(CNC(=O)NCc2c(F)cccc2OC(F)F)s1,-0.321
19,O=C(Nc1ccc(-c2csnn2)cc1)NC(CCO)C1CC1 (centres undefined),18
20,CNS(=O)(=O)CC(=O)N1CCC(c2cc3ccccc3[nH]2)CC1,1.33
21,O=C(NCc1ccon1)Nc1cc(F)ccc1N1CCCCC1,0.987
22,COC(=O)c1ncccc1N1CCCC1,-2.82
23,CS(=O)(=O)NC(=O)c1ccn(-c2ccc(Cl)c(Cl)c2)n1,-3.09
24,CCS(=O)(=O)NCC(=O)N1CCC(c2cc3ccccc3[nH]2)CC1,1.52

row,SMILES,cytotoxicity at 70.5 h [%]
1,CN1CCN(c2ccc(F)cc2NC(=O)NCc2ccon2)CC1,0.112
2,O=S(=O)(NC1CCCOC1)c1ccc(C(F)(F)F)nc1 (centres undefined),-1.78
3,CC(O)c1cccc(OCc2ccon2)c1 (centres undefined),-2.61
4,CN(Cc1nnnn1C1CC1)CC1COc2ccccc2O1 (centres undefined),-0.558
5,CN(C)CCN(Cc1ccc(F)cc1)C(=O)c1ccn(C)c(=O)c1,-5.2
6,COC(=O)c1cccc(C(=O)N(CCC#N)CC(C)(C)C)c1,1.22
7,c1ccc(N2CCC(OCC3CCCCO3)CC2)nc1 (centres undefined),0.314
8,Clc1ccc(N2CCC(OCC3CCCCO3)CC2)nc1 (centres undefined),-1.36
9,CC(C)n1cnnc1SCCN(C)c1ccccc1,-6.85
10,CCCOc1cccc(OCc2ccon2)c1,-7.15
11,COCCN(C)C(C)Cc1ccccc1OC (centres undefined),-11.8
12,CCOCc1ccc(NC(=O)N2CCOC3(CCC3)C2)cc1,-5.85
13,CC(NC(=O)CCCN(C)C)c1cn(-c2ccccc2)nn1 (centres undefined),20.9
14,CC(C)CCC(=O)N1CCC2(CC1)OCCO2,-4.64
15,CCCC(=O)N1CCC2(CC1)OCCO2,-2.35
16,CN(C)c1cc(CNC(=O)CC2CCCCC2)ccn1,-5.82
17,CNS(=O)(=O)c1ccc(C(=O)NCc2ccnc(OC)c2)cc1,-10
18,COc1cc(C)ccc1OCCC(=O)N1CCC(C(N)=O)C1 (centres undefined),-10.8
19,NC(=O)C(Nc1ccc(Cl)cc1)c1ccc(F)cc1 (centres undefined),-0.513
20,O=C(NCCc1coc(-c2ccc(F)cc2)n1)NCC1CCOC1 (centres undefined),20.9
21,CNS(=O)(=O)CC(=O)NC(c1cc(C)sc1C)C(C)C (centres undefined),2.55
22,Cc1cnn(Cc2ccc(NC(=O)N3CCCC3)cc2)c1,-3.9
23,CCc1nc(Cn2c(=O)c3c(C(F)(F)F)cc(C)nc3n2C)no1,0.468
24,Cc1cc(C(F)(F)F)c2c(=O)n(Cc3ccon3)n(C)c2n1,-5.27

row,SMILES,cytotoxicity at 70.5 h [%]
1,CC(O)(CNC(=O)NCCc1ccc2c(c1)CCO2)c1ccccc1 (centres undefined),-0.353
2,CSc1ccc(NC(=O)Cn2cc(N)cn2)cc1,-6.5
3,O=C(C1CC(c2cccc(F)c2)=NO1)N1CCc2ccccc21 (centres undefined),-4.18
4,O=c1ccc(S(=O)(=O)N2CCCC2)cn1CC1CCCCO1 (centres undefined),-11.1
5,Cc1ccc(OCCn2cnc3oc(C)c(C(=O)O)c3c2=O)cc1,19.9
6,CCN(CC)c1nc2sc(C(=O)N3CCNC(=O)C3)cc2s1,-8.64
7,Cc1noc(C2CCCN(Cn3cc(Cl)cn3)C2)n1 (centres undefined),-1.46
8,Cc1noc(C2CCCN(Cn3cc(Br)cn3)C2)n1 (centres undefined),-8.2
9,CC(NC(=O)N1CCCN(C)CC1)c1ccc2c(c1)OCCO2 (centres undefined),-6.8
10,CN(C)c1nc2sc(C(=O)N3CCNC(=O)CC3)cc2s1,-10.2
11,O=C(C1CC(c2ccccc2)=NO1)N1CCCCc2ccccc21 (centres undefined),-7.24
12,CC(NCc1cnc(N2CCOCC2)s1)c1ccc(Cl)s1 (centres undefined),-7.8
13,Cc1ccc(N2CCCC(Nc3nn4cc(C)nc4s3)C2)nn1 (centres undefined),-9.29
14,Clc1ccc2cccnc2c1CNC1CCc2ncnn2C1 (centres undefined),-5.27
15,Cc1cc(C[S+]([O-])Cc2ccccc2F)on1 (centres undefined),-8.66
16,CSc1ccc(NC(=O)Cn2cc(NC(C)=O)cn2)cc1,-7.71
17,CN(C)c1ccc(C(=O)Nc2ccn(Cc3ccccn3)n2)cn1,14.6
18,COC(=O)CC1CSCCN1C(=O)CCc1c(C)nn(C)c1C (centres undefined),-7.68
19,CCCC(=O)Nc1cnn(CC(=O)Nc2ccc(SC)cc2)c1,-5.62
20,Cc1ccc(C2(CN3CCN(Cc4cncn4C)CC3)CC2)cc1,12.6
21,CCc1c(C)[nH]c(C2(N)CCCC2)nc1=O,-2.07
22,Cc1nc(C)c(C(C)NCc2cnc(N3CCOCC3)nc2)s1 (centres undefined),19.8
23,CN1CCCC(c2cncc(C(=O)NCc3ccccc3Cl)n2)C1 (centres undefined),-7.68
